Counter-ions that a name gives are not always drawn. Like-named read-outs stand apart in the source and are kept apart here.
Target: T1, Human IP6K1 (Homo sapiens, UniProt Q92551)
T1 construct: GST (N, cleaved yes); made in house; host or cells: C43 E. coli, pGEX-6P-2
Test: IP6K1 high-throughput screen of the Sigma LOPAC (ADP-Glo Max, single point);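 also: final compound concentration 10µM in 5% DMSO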
Assay type: biochemical

[1] = Sigma LOPAC single-point screen, ADP-Glo Max raw signal per well
[2] = Sigma LOPAC single-point screen, Z-score from plate average and StDev
[3] = LOPAC single-point screen, ADP-Glo Max raw signal per well
[4] = LOPAC single-point screen, Z-score from raw signal with plate average and StDev
[5] = LOPAC single-point screen, Z-score against plate average and StDev
[6] = LOPAC single-point screen, ADP-Glo Max luminescence raw signal per well
[7] = LOPAC single-point screen, Z-score relative to plate average and StDev
[8] = LOPAC single-point screen, Z-score from plate average and StDev

T1 sequence (Q92551 whole entry): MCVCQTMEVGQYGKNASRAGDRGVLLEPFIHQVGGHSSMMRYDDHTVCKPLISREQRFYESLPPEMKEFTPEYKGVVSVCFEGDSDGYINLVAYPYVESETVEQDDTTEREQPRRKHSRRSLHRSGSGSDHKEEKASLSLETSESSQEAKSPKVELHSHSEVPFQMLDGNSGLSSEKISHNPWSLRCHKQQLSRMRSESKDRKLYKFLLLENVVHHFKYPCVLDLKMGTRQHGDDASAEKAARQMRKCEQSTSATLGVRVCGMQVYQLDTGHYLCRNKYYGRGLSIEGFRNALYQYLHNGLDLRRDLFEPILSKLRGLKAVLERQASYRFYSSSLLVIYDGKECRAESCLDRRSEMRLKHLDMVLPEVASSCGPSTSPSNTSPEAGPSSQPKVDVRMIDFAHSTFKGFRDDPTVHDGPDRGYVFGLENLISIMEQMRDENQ

CC(C)NCC(O)c1ccc(O)c(O)c1.Cl (racemic) [(±)-Isoproterenol hydrochloride]
Raw Signal [1]: 57305
Z-score [2]: 0.4892

COc1ccc(CCN(C)CCCC(C#N)(c2cc(OC)c(OC)c(OC)c2)C(C)C)cc1OC.Cl (racemic) [(±)-Methoxyverapamil hydrochloride]
Raw Signal [3]: 52492
Z-score [4]: -0.3195

COCCc1ccc(OCC(O)CNC(C)C)cc1.O=C(O)C(O)C(O)C(=O)O (racemic) [(±)-Metoprolol (+)-tartrate]
Raw Signal [1]: 61286
Z-score [2]: 1.158

C[C@@H]1O[C@H](C[N+](C)(C)C)C[C@H]1O.[Cl-] (racemic) [(±)-Muscarine chloride]
Raw Signal [3]: 54548
Z-score [5]: 0.02596

C=CCN1CC[C@@]2(C)c3cc(O)ccc3C[C@@H]1[C@@H]2C.Cl (racemic) [(±)-N-Allylnormetazocine hydrochloride]
Raw Signal [6]: 52910
Z-score [7]: -0.8812

O=C(O)C1CCCNC1 (racemic) [(±)-Nipecotic acid]
Raw Signal [1]: 63719
Z-score [2]: 1.023

COc1cc(C(O)CN)ccc1O.Cl (racemic) [(±)-Normetanephrine hydrochloride]
Raw Signal [3]: 54540
Z-score [5]: 0.02461

CN1CCN(C2Cc3ccccc3Sc3ccc(Cl)cc32)CC1.O=C(O)/C=C\C(=O)O (racemic) [(±)-Octoclothepin maleate]
Raw Signal [1]: 60782
Z-score [2]: 1.073

Cl.NCC(O)c1ccc(O)cc1 (racemic) [(±)-Octopamine hydrochloride]
Raw Signal [3]: 52629
Z-score [4]: -0.2965

CCCN1CCOC2c3cc(O)ccc3OCC21.Cl (racemic) [(±)-PD 128,907 hydrochloride]
Raw Signal [6]: 53572
Z-score [7]: -0.4763

CC(C)NCC(O)COc1cccc2ccccc12.Cl (racemic) [(±)-Propranolol hydrochloride]
Raw Signal [3]: 53827
Z-score [4]: -0.09519

Br.C=CCN1CCc2cc(O)c(O)cc2C(c2ccc(O)cc2)C1 (racemic) [(±)-SKF 38393, N-allyl-, hydrobromide]
Raw Signal [3]: 54138
Z-score [4]: -0.3664

Cl.Oc1cc2c(cc1O)C(c1ccccc1)CNCC2 (racemic) [(±)-SKF-38393 hydrochloride]
Raw Signal [6]: 48418
Z-score [7]: -1.371

CC(C)NCC(O)c1ccc(NS(C)(=O)=O)cc1.Cl (racemic) [(±)-Sotalol hydrochloride]
Raw Signal [3]: 55236
Z-score [4]: -0.1531

CCN1CCCC1CNC(=O)c1cc(S(N)(=O)=O)ccc1OC (racemic) [(±)-Sulpiride]
Raw Signal [6]: 63231
Z-score [8]: 1.4

CNCC(O)c1ccc(O)cc1 (racemic) [(±)-Synephrine]
Raw Signal [3]: 56579
Z-score [5]: 0.1079

O=C1c2c(O)cc(O)cc2OC(c2ccc(O)c(O)c2)C1O (racemic) [(±)-Taxifolin]
Raw Signal [1]: 61241
Z-score [2]: 1.0136

O=C1CCC(N2C(=O)c3ccccc3C2=O)C(=O)N1 (racemic) [(±)-Thalidomide]
Raw Signal [3]: 54848
Z-score [4]: -0.2284

COc1cc(C(O)C(=O)O)ccc1O (racemic) [(±)-Vanillylmandelic acid]
Raw Signal [6]: 52849
Z-score [7]: -0.4708

COc1ccc(CCN(C)CCCC(C#N)(c2ccc(OC)c(OC)c2)C(C)C)cc1OC.Cl (racemic) [(±)-Verapamil hydrochloride]
Raw Signal [6]: 63315
Z-score [8]: 1.417

Cl.OC1CCCCC1N1CCC(c2ccccc2)CC1 (racemic) [(±)-Vesamicol hydrochloride]
Raw Signal [6]: 53363
Z-score [7]: -0.5169

O=C(O)CCCCC1CCSS1 (racemic) [(±)-alpha-Lipoic Acid]
Raw Signal [1]: 59328
Z-score [2]: 0.6419

CC(N)(C(=O)O)c1ccc(C(=O)O)cc1 (racemic) [(±)-alpha-Methyl-4-carboxyphenylglycine]
Raw Signal [3]: 51961
Z-score [4]: -0.4087

C=CC(N)CCC(=O)O (racemic) [(±)-gamma-Vinyl GABA]
Raw Signal [6]: 68019
Z-score [8]: 2.33

CCC1(c2ccc(N)cc2)CCC(=O)NC1=O (racemic) [(±)-p-Aminoglutethimide]
Raw Signal [3]: 58613
Z-score [5]: 0.1233

NC(Cc1ccc(Cl)cc1)C(=O)O (racemic) [(±)-p-Chlorophenylalanine]
Raw Signal [6]: 55203
Z-score [7]: -0.4773

CC(C)C1C2CCC(C2)C1N.Cl (racemic) [AGN 192403 hydrochloride]
Raw Signal [6]: 53820
Z-score [7]: -0.7209

CCCCS(=N)(=O)CCC(N)C(=O)O (racemic) [DL-Buthionine-[S,R]-sulfoximine]
Raw Signal [6]: 66724
Z-score [8]: 1.552

N[C@@H]1CONC1=O (racemic) [DL-Cycloserine]
Raw Signal [3]: 55454
Z-score [4]: -0.4331

CCCCCCCCCCCCCCCCCC(=O)OC(CC(=O)O)C[N+](C)(C)C.[Cl-] (racemic) [DL-Stearoylcarnitine chloride]
Raw Signal [3]: 55265
Z-score [4]: -0.1474

O=C(O)CNC(=O)C(CS)Cc1ccccc1 (racemic) [DL-Thiorphan]
Raw Signal [3]: 55327
Z-score [4]: -0.1354

CC(N)(Cc1ccc(O)cc1)C(=O)O (racemic) [DL-alpha-Methyl-p-tyrosine]
Raw Signal [6]: 72995
Z-score [8]: 2.656

CCCCCCCCCCCCCCC[C@H](O)[C@H](N)CO (racemic) [DL-erythro-Dihydrosphingosine]
Raw Signal [3]: 54857
Z-score [5]: -0.06296

NC(C(=O)O)C(O)C(=O)O (racemic) [DL-threo-beta-hydroxyaspartic acid]
Raw Signal [6]: 64938
Z-score [8]: 1.984

Oc1cc2c(cc1O)[C@H]1c3ccccc3CN[C@@H]1CC2 (racemic) [Dihydrexidine hydrochloride]
Raw Signal [3]: 53851
Z-score [4]: -0.2673

CCCCCCCCCCCCCCCC(=O)OC(CC(=O)O)C[N+](C)(C)C.[Cl-] (racemic) [Palmitoyl-DL-Carnitine chloride]
Raw Signal [3]: 51772
Z-score [4]: -0.4405

CCN1CCC[C@H]1CNC(=O)c1c(O)c(Cl)cc(Cl)c1OC.O=C(O)C(O)C(O)C(=O)O (racemic) [S(+)-Raclopride L-tartrate]
Raw Signal [1]: 59305
Z-score [2]: 0.6375

Br.CCCN1CCC2c3cc(O)ccc3CCC21 (racemic) [cis-(±)-8-OH-PBZI hydrobromide]
Raw Signal [3]: 53901
Z-score [5]: -0.08275

N[C@]1(C(=O)O)CC[C@H](C(=O)O)C1 (racemic) [trans-(±)-ACPD]
Raw Signal [3]: 56973
Z-score [4]: -0.1656

O=C(O)[C@H]1C[C@H](C(=O)O)N1 (relative stereo) [trans-Azetidine-2,4-dicarboxylic acid]
Raw Signal [3]: 57895
Z-score [5]: -0.003188

COc1ccc2c(c1OC)C(=O)OC2C1c2cc3c(cc2CCN1C)OCO3 (single isomer, unassigned; (+)) [(+)-Hydrastine]
Raw Signal [3]: 55977
Z-score [5]: 0.1645

CC12NC(Cc3ccccc31)c1ccccc12.O=C(O)/C=C\C(=O)O (single isomer, unassigned; (+)) [(+)-MK-801 hydrogen maleate]
Raw Signal [1]: 58157
Z-score [2]: 0.6324

CC(C)NCC(O)c1ccc(O)c(O)c1.Cl (single isomer, unassigned; (-)) [(-)-Isoproterenol hydrochloride]
Raw Signal [6]: 50939
Z-score [7]: -0.5804

CN1CCCC1c1cccnc1.O=C(O)C(O)C(O)C(=O)O (single isomer, unassigned; (-)) [(-)-Nicotine hydrogen tartrate salt]
Raw Signal: 64466
Z-score: 1.692

C[N+]1(C)[C@@H]2CC(OC(=O)[C@H](CO)c3ccccc3)C[C@H]1[C@@H]1O[C@@H]12.O=[N+]([O-])[O-] (single isomer, unassigned; (-)) [(-)-Scopolamine methyl nitrate]
Raw Signal [3]: 57036
Z-score [5]: 0.1966

CC(N)C(O)c1ccc(O)c(O)c1 (single isomer, unassigned; (-)) [(-)-alpha-Methylnorepinephrine]
Raw Signal [6]: 45337
Z-score [7]: -1.996

Nc1nc(Cl)nc2c1ncn2[C@@H]1O[C@H](COP(=O)(O)OP(=O)(O)OP(=O)(O)O)C(O)C1O (stereo in doubt)
Raw Signal [6]: 49196
Z-score [7]: -1.213

Nc1ncnc2c1nc(Sc1ccc(Cl)cc1)n2C1OC2COP(=O)(O)OC2C1O (stereo in doubt) [8-(4-Chlorophenylthio)-cAMP sodium]
Raw Signal [6]: 54805
Z-score [7]: -0.5474

CCCCC1(C2CCCC2)Cc2cc(OCC(=O)O)c(Cl)c(Cl)c2C1=O (stereo in doubt) [R(+)-Butylindazone]
Raw Signal [3]: 53463
Z-score [4]: -0.3461

CCn1c(=O)c2nc(-c3ccccc3)[nH]c2n(CC)c1=O [1,3-Diethyl-8-phenylxanthine]
Raw Signal [3]: 56931
Z-score [4]: -0.173

Cn1c(=O)c2[nH]c(-c3ccccc3)nc2n(C)c1=O [1,3-Dimethyl-8-phenylxanthine]
Raw Signal [3]: 54517
Z-score [5]: 0.02075

CCCn1c(=O)c2c(ncn2C)n(CCC)c1=O [1,3-Dipropyl-7-methylxanthine]
Raw Signal [1]: 58298
Z-score [2]: 0.6359

CCCn1c(=O)c2[nH]c(-c3ccc(S(=O)(=O)O)cc3)nc2n(CCC)c1=O [1,3-Dipropyl-8-p-sulfophenylxanthine]
Raw Signal [6]: 54862
Z-score [7]: -0.5374

Br.Br.N=C(N)SCCc1cccc(CCSC(=N)N)c1 [1,3-PBIT dihydrobromide]
Raw Signal [1]: 61855
Z-score [2]: 1.133

OC[C@H]1NC[C@@H](O)[C@@H]1O [1,4-Dideoxy-1,4-imino-D-arabinitol]
Raw Signal [3]: 54688
Z-score [4]: -0.09729
